Experiments:
CHO-K1 = assay: Intrinsic activity at human recombinant GABAB receptor expressed in CHO-K1 cells assessed as inhibition of intracellular calcium release by FLIPR relative to GABA; assay type: cell-based
[1] = Agonist activity at human recombinant GABABreceptor expressed in CHO-K1 cells assessed as inhibition of intracellular calcium release by FLIPR; assay type: functional, cell-based
[2] = Displacement of [3H]GABA from GABABreceptor in rat brain synaptic membranes; assay type: cell membranes, Membrane
Mus musculus = assay: Toxicity in sc dosed mouse assessed as subcutaneous dose producing 2 degC decrease in body temperature; assay type: organism-based; conditions: in vivo
Canis familiaris = species on record: Canis familiaris; assay: Inhibition of transient lower esophageal sphincter relaxation in dog; assay type: functional; conditions: Canis lupus familiaris
[3] = Bioavailability in dog; assay type: ADME, organism-based, Canis lupus familiaris; conditions: in vivo
[4] = Bioavailability in rat; assay type: ADME, organism-based; conditions: in vivo

Row | Structure (SMILES) | Intrinsic activity (CHO-K1) | EC50 [1] [nM] | Ki [2] [nM] | Activity (Mus musculus) [µmol/kg] | ED50 (Canis familiaris) [µmol/kg] | bioavailability [3] [%] | bioavailability [4] [%]
1 | CP(=O)(O)CC(=O)CN | 1 | 270 | 200 | – | – | – | –
2 | CP(=O)(O)C[C@@H](F)CN | 1 | 1700 | 480 | – | – | – | –
3 | CP(=O)(O)C[C@H](F)CN | 1 | 14 | 4.3 | – | – | – | –
4 | CP(=O)(O)CCCN | 1 | – | – | – | – | – | –
5 | NCC(CC(=O)O)c1ccc(Cl)cc1 (stereo not given) | 1 | – | – | – | – | – | –
6 | NC[C@@H](F)C[PH](=O)O [LESOGABERAN] | 1 | 8.64 | 5.1 | – | – | – | –
7 | CP(=O)(O)C[C@H](O)CN | 1 | 600 | 840 | – | – | – | –
8 | CP(=O)(O)CC(F)CN (stereo not given) | 1 | 23 | 14 | – | – | – | –
9 | NC[C@@H](O)C[PH](=O)O | 1 | 1100 | 2100 | – | – | – | –
10 | NCC(=O)C[PH](=O)O | 1 | 81 | 48 | – | – | – | –
11 | NCC(O)C[PH](=O)O (stereo not given) | 1 | 220 | 94 | – | – | – | –
12 | NC[C@H](O)C[PH](=O)O | 1 | 130 | 50 | > 8000 | 7 | 88 | 78
13 | NC[C@H](F)C[PH](=O)O | 1 | 250 | 70 | – | – | – | –
14 | CP(=O)(O)C[C@@H](O)CN | 1 | 150 | 180 | 5.4 | 0.17 | – | –
15 | NCC(F)C[PH](=O)O (stereo not given) | 1 | 15 | 10 | – | – | – | –
16 | NCCC[PH](=O)O | 1 | 19 | 15 | – | – | – | –

Reference: ChEMBL document CHEMBL1155076, “Synthesis and pharmacological evaluation of novel gamma-aminobutyric acid type B (GABAB) receptor agonists as gastroesophageal reflux inhibitors” (J Med Chem, 2008)
